Laboratory results as given in patent publication US9006191B2, “Silencing of polo-like kinase expression using interfering RNA” (Protiva Biotherapeutics, Inc., priority 2007, dated 2015).
Read-outs that look alike come from different tables or passages of the source. m = 2'-O-methyl; r = 2'-OH (RNA)

Experiments:
Hep3B liver tumors = assay: Intrahepatic Hep3B tumor model (survival, body weight, tumor burden); assay type: in vivo; settings: scid/beige mice, 2 mg/kg IV twice weekly for 3 weeks
Experimental: SNALP containing PLK-1 siRNA (“1:57” SNALP formulation: 1.4% PEG-cDMA; 57.1% DLinDMA; 7.1% DPPC; and 34.3% cholesterol) were tested for their effects on the survival of […] mice bearing Hep3B liver tumors.
Intrahepatic tumor models. Liver tumors were established in mice by direct intrahepatic injection of Hep3B or Neuro2a tumor cells (45). Female scid/beige mice (Charles River Laboratories) and male A/J mice (Jackson Laboratories) were used as hosts for the Hep3B and Neuro2a tumors, respectively. Animals received Anafen by SC injection immediately prior to surgery. Individual mice were anaesthetized by isoflourane gas inhalation and eye lube applied to prevent excessive eye drying. While maintained under gas anaesthesia, a single 1.5 cm incision across the midline was made below the sternum and the left lateral hepatic lobe exteriorized. 1×10^6 Hep3B cells or 1×10^5 Neuro2a cells suspended in 25 μL PBS were injected slowly into the lobe at a shallow angle using a Hamilton syringe and 30G needle. A swab was then applied to the puncture wound to stop any bleeding prior to suturing. Mice were allowed to recover from anaesthesia in a sterile cage and monitored closely for 2-4 h before being returned to conventional housing.
Eight to 11 days after tumor implantation, mice were randomized into treatment groups. siRNA SNALP formulations or PBS vehicle control were administered by standard intravenous injection via the lateral tail vein, calculated on a mg siRNA/kg basis according to individual animal weights (10 mL/kg injection volume). Body weights were then monitored throughout the duration of the study as an indicator of developing tumor burden and treatment tolerability. For efficacy studies, defined humane endpoints were determined as a surrogate for survival. Assessments were made by qualified veterinary technicians based on a combination of clinical signs, weight loss, and abdominal distension to define the day of euthanization due to tumor burden.
Measurement of human PLK-1 and GAPDH mRNA in tumor tissues. Tumors were harvested directly into RNALater and stored at 4° C. until processing. 100 mg tumor tissue was homogenized in Tissue and Lysis Solution (EpiCentre Biotechnologies) containing […] proteinase K (EpiCentre) in a Fastprep tissue homogenizer followed by incubation in a 65° C. waterbath for 15 min and centrifuged to clarify lysates. mRNA analysis in FIG. 33B was performed on purified RNA isolated according the 5′-RACE-PCR protocol. Human PLK-1 and GAPDH mRNA were measured in tumor lystes by the QuantiGene bDNA assay (Panomics) as per the manufacturer's instructions (Quantigene 1.0 Manual). […] Data were expressed as mean PLK-1:GAPDH ratio+/−SD of individual animals. Tumor burden was assessed by homogenizing the complete liver from tumor bearing mice and measuring the total hGAPDH signal (RLU's) within the liver. Values were expressed as hGAPDH RLU/mg total liver.

PLK-1 mRNA = assay: 5′ RACE-PCR of Hep3B liver tumors; assay type: in vivo, human; settings: hepatic Hep3B tumors, single 2 mg/kg IV dose
Text: (§1) 5′ RNA Ligase Mediated Rapid Amplification of cDNA ends (5′ RLM RACE).

IFIT1 mRNA, serum IFNα [1] = settings: mouse, in vivo, iv
Experimental: (§2) Balb/c mice (n=4 per group) were administered 2.5 mg/kg siRNA or lipid vehicle; serum IFNα (pg/mL) and IFIT1 mRNA (relative to GAPDH) from whole liver lysates were assessed after 4, 8, and 16 h by ELISA and bDNA assay, respectively. […] (b) Serum IFNα and (c) liver IFIT1 mRNA were assessed 4 h after administration (mean+SD, n=4).
(§3) SNALP-formulated Luc (unmodified) and the 2′OMe-modified Luc-U/U, PLK1424-2/A, PLK773-1/B, or KSP2263-U/U siRNA were administered at 2 mg/kg i.v. to Balb/C mice. (A) IFIT1 relative to GAPDH mRNA in liver and spleen was assessed at 4 h by bDNA analysis. […] Serum IFNα was assessed at 6 h by ELISA. […] Values represent mean+SD (n=4).
(§4) IFIT1 mRNA and serum cytokines were assessed 4-6 h after SNALP administration based on the approximate time of peak response for these markers. In these studies, SNALP-formulated native Luc siRNA (Table 6) was used as a positive control for immune stimulation.
(§5) In vivo immune stimulation assays. […] 6-8 week old Balb/C mice were obtained from Harlan and subject to a two week acclimation period prior to use. Mice were administered SNALP formulated siRNA (2 mg/kg) in PBS via standard intravenous injection in the lateral tail vein. Blood was collected by cardiac puncture and processed as plasma for cytokine analysis. Liver and spleen were collected into RNALater (Sigma Co.) for IFIT1 mRNA analysis.
(§6) Measurement of IFIT1 mRNA in mouse tissues. Murine liver and spleen were processed for bDNA assay to quantitate IFIT1 mRNA as described above. The IFIT1 probe set was specific to mouse IFIT1 mRNA (positions 4-499 of NM—008331) and the GAPDH probe set was specific to mouse GAPDH mRNA (positions 9-319 of NM—008084). Data is shown as the ratio of IFIT1 relative light units (RLU) to GAPDH RLU.
(§7) Cytokine ELISA. All cytokines were quantified using sandwich ELISA kits. These were mouse interferon-α (PBL Biomedical; Piscataway, N.J.) and human and mouse IL-6 (BD Biosciences; San Diego, Calif.).

IFIT1 mRNA, serum IFNα [2] = assay: In vivo immune stimulation assay in Balb/c mice (IFIT1 mRNA, serum IFNα); settings: SNALP-formulated siRNA IV; for IFIT1 mRNA induction in liver and spleen: 4 h
Experimental: as §2, §3, §4, §5, §6, §7

[3] = tested on: Flt3-ligand derived murine dendritic cells; assay: Cytokine induction in murine Flt3L dendritic cell cultures (ELISA); assay type: cell-based, mouse; settings: murine Flt3L DC, 5 μg/ml siRNA in SNALP, 24 h
Experimental: Cytokine Induction Assays: Flt3-ligand derived murine dendritic cells (Flt3L DC) were generated as described by Gilliet et al. (J. Exp. Med., 195:953-958) using 100 ng/ml murine Flt3-ligand (PeproTech Inc.; Rocky Hill, N.J.) supplemented media. Femurs and tibiae of female Balb/C mice were isolated and rinsed in sterile PBS. The ends of bones were cut and marrow harvested in complete media (RPMI 1640, 10% heat inactivated FBS, 1% penicillin/streptomycin, 2 mM L-glutamine, 1 mM sodium pyruvate, 25 mM HEPES, 50 μM 2-mercaptoethanol). Bone marrow cells were passed through a 70 μm strainer, centrifuged at 1000 rpm for 7 minutes, and resuspended in complete media supplemented with 100 ng/ml murine Flt3L to 2×10^6 cells/ml. 2 mls of cells were seeded in 6-well plates and 1 ml fresh complete media added every two or three days. On day 9 of culture, non-adherent cells were washed in complete media and plated into 96-well plates at concentrations ranging from 0.5 to 2.5×10^5 cells/well. 2′OMe-modified and unmodified (0/0) PLK-1 SNALP were diluted in PBS and added to Flt3L DC cultures at 5 μg/ml siRNA. Cells were incubated for 24 hours at 37° C. before supernatants were assayed for cytokines by ELISA.
Cytokine ELISA: Interferon-α and IL-6 in culture supernatants were quantified using sandwich ELISA kits according to manufacturer's instructions. These were mouse IFN-α (PBL Biomedical; Piscataway, N.J.) and mouse IL-6 (eBioscience; San Diego, Calif.).
In vitro immune stimulation assays. Mouse Flt3L dendritic cell cultures were generated as described previously (65). In brief, bone marrow from Balb/C mice was harvested in complete media (RPMI 1640, 10% FBS, 1% penicillin/streptomycin, 2 mM L-glutamine, 1 mM sodium pyruvate, 25 mM HEPES, 50 uM 2-mercaptoethanol), passed through a 70 micron strainer and resuspended to 2×10^6 cells/mL in complete media supplemented with 100 ng/mL murine Flt3L (Peprotech). Cells were seeded in 6-well plates and 1 mL fresh Flt3L media added every three days. On day 9 of culture, non-adherent cells were plated into 96 well plates at a concentration 2×10^5 cells/well. Formulated siRNA were diluted in PBS and added to the cells for 24 h before supernatants were assayed for cytokines by ELISA.
Cytokine ELISA. All cytokines were quantified using sandwich ELISA kits.

[4] = Multi-dose toxicity study in CD1 ICR mice; assay type: in vivo, mouse; settings: 2 mg/kg twice weekly, after 15 and 29 days
Experimental: Groups of CD1 ICR mice were administered PBS, PLK773-1/B, or Luc-U/U SNALP to assess potential cumulative toxicities associated with either PLK-1 silencing or the lipid vehicle. Mice were treated twice weekly at 2 mg/kg siRNA, equivalent to the efficacious dosing regimen in tumor studies. […] All values are mean+/−SD (n=6). No changes in red blood cell parameters were observed.

mouse KSP mRNA [5] = assay: 5′ RACE-PCR in Neuro2a cells; assay type: cell-based; settings: 24 h
Experimental: (A) HT29 cells were treated with 10 nM SNALP-formulated PLK1424, Luc siRNA or PBS. RNA was isolated 24 hours after transfection and assayed for the specific PLK-1 mRNA cleavage product by 5′-RACE-PCR. (B) Neuro2a cells were treated with SNALP-formulated KSP2263, PLK773 siRNA or PBS. RNA was isolated 24 hours after transfection and assayed for the specific mouse KSP mRNA cleavage product by 5′-RACE-PCR.
The detection of specific RNA cleavage products generated by RISC-mediated hydrolysis of target mRNA is the definitive marker confirming RNAi as the mechanism of gene silencing (39, 40). Activated RISC cleaves target mRNA precisely between the nucleotides complementary to positions 10 and 11 of the siRNA AS strand generating an mRNA cleavage product that is unique to the siRNA sequence. This can be detected in cells using an appropriately designed 5′-rapid amplification of cDNA ends-PCR method (RACE-PCR). We developed RACE-PCR assays to detect the PLK1424-specific cleavage product of human PLK-1 mRNA and the KSP2263-specific cleavage product of mouse KSP mRNA.
as §1

mouse KSP mRNA [6] = assay: 5′ RACE-PCR of hepatic Neuro2a tumors; assay type: in vivo
Text: as §1

Neuro2a tumors = assay: Hepatic Neuro2a tumor histology (H&E, quantitative); assay type: in vivo, mouse
Experimental: Hepatic Neuro2a tumor histology 24 h after a single intravenous administration of (A) Luc-U/U or (B) KSP2263-U/U siRNA formulated in SNALP (2 mg/kg siRNA). Images are at 200× magnification and representative of tumors from at least 6 individual mice. […] (C) Quantitative histology of H&E stained tumor tissues from mice treated with SNALP-formulated KSP2263-U/U at 4, 2, 1, or 0.5 mg/kg siRNA. Tumor cells with condensed chromatin structures were scored positive and calculated as a % of total tumor cells taken from 10 fields of view. Positive cells included aberrant and typical mitotic and apoptotic figures. Values are mean+SD of 3 mice. Mean SNALP particle size and (polydispersity) were 88 (0.07) and 82 (0.08) nm for KSP2263 and Luc, respectively.
Histology. Tumors were harvested from mice 24 h after siRNA administration and fixed directly in 10% buffered formalin. Tissues were then processed as paraffin embedded tissue sections and stained with Hematoxylin and Eosin using conventional histological techniques. Quantitative analysis of stained sections was performed by counting the number of mitotic/apoptotic cells displaying condensed chromatin structures as a percentage of total tumor cells. Values for each tumor were derived from means of 10 fields of view at 400× magnification.

Neuro2a liver tumors = assay: Intrahepatic Neuro2a tumor model (survival); assay type: in vivo, mouse; settings: A/J mice, hepatic Neuro2a tumors, 4 mg/kg Q3d x5
Experimental: PLK1424-2/A treatment confers significant survival advantages in scid/beige mice bearing hepatic Hep3B tumors. Mice were administered SNALP-formulated PLK1424-2/A (n=15) or Luc-U/U (n=8) at 6×2 mg/kg, intravenous twice weekly (d 10 to d 28). (A) Body weights (mean+SD) over the dosing period expressed as % of initial weight on d 10. (B) Kaplan-Meier plot of days to euthanization due to tumor burden. […] (p=0.03, Log-rank Mantel Cox test). (C) Residual hepatic Hep3B tumor burden in mice 24 h after final administration of PLK1424-2/A siRNA (5×2 mg/kg siRNA on d 8, 11, 14, 18 & 21). Bars represent hGAPDH mRNA/mg liver of individual mice (mean+/−SD of triplicate analyses) determined by human-specific bDNA assay (No tumor=livers from non-tumor seeded mice). […]
Intrahepatic tumor models. […] Mice were allowed to recover from anaesthesia in a sterile cage and monitored closely for 2-4 h before being returned to conventional housing.
Eight to 11 days after tumor implantation, mice were randomized into treatment groups. siRNA SNALP formulations or PBS vehicle control were administered by standard intravenous injection via the lateral tail vein, calculated on a mg siRNA/kg basis according to individual animal weights (10 mL/kg injection volume). Body weights were then monitored throughout the duration of the study as an indicator of developing tumor burden and treatment tolerability. […]

HeLa cells = assay: Monoastral spindle formation in HeLa cells; assay type: cell-based, human; settings: 20 nM, 16 h
Experimental: HeLa cells were treated for 16 h with (A) Luc or (B) KSP2263 siRNA at 20 nM then immunostained for α-tubulin (FITC). DNA was stained with DAPI and flourescent images captured and overlayed.

| Substance | median survival time (Hep3B liver tumors) [days] | time until first euthanization (Hep3B liver tumors; days after tumor seeding) [days] | specific cleavage product of PLK-1 mRNA by 5′ RACE-PCR (PLK-1 mRNA) | serum IFNα / serum cytokine response (IFIT1 mRNA, serum IFNα [1]) | IFIT1 mRNA induction in liver and spleen (IFIT1 mRNA, serum IFNα [2]) | cytokine (IL-6, IFN-α) response [3] | clinical chemistry and blood counts [4] | serum IFNα / serum cytokine response (IFIT1 mRNA, serum IFNα [2]; 4-6 h) | KSP mRNA cleavage product by 5′ RACE-PCR (mouse KSP mRNA [5]) | RNAi-mediated KSP mRNA cleavage by RACE-PCR (mouse KSP mRNA [6]) | Neuro2a tumor histology (aberrant mitotic figures) (Neuro2a tumors; 24 h after SNALP administration) | tumor cells with condensed chromatin structures, % of total tumor cells (Neuro2a tumors; 24 h post siRNA treatment) [%] | median survival time (Neuro2a liver tumors) [days] | monoastral spindle phenotype (HeLa cells) |
| --- | --- | --- | --- | --- | --- | --- | --- | --- | --- | --- | --- | --- | --- | --- |
| Luc-U/U: control 2′OMe siRNA targeting luciferase, SEQ ID NO:233/234 (chain 1 GANUANGNCCGGNNANGNAUU; chain 2 UACANAACCGGACANAANCUU; 2'-O-methyl modifications at selected positions, key for n not given here) [reference compound] | 32 | 28 | not evident | no measurable IFNα | no measurable IFNα or increase in IFIT1 mRNA in the liver or spleen | – | – | – | – | – | – | – | – | – |
| PLK773-1/B: 2′OMe-modified PLK773 duplex, SEQ ID NO:220/223 (chain 1 AGACCUACCUCCGGAUCAAUU; chain 2 UUGAUCCGNAGNUAGGNCUUU; siRNA; chain 1: sugars from the 5' end r1 m1 r10 m1 r8, backbone not given here; chain 2: chemistry not given here) | – | – | – | – | no measurable IFNα or increase in IFIT1 mRNA in the liver or spleen | completely abrogated | no significant changes in serum liver enzymes, total wbc, lymphocyte and neutrophil counts, platelet numbers, or rbc parameters | no measurable IFNα | – | – | – | – | – | – |
| KSP2263-U/U: 2′OMe-modified KSP2263 duplex, SEQ ID NO:227/229 (chain 1 CNGAAGACCNGAAGACAANTT; chain 2 AUUGUCUNCAGGNCUNCAGTT; siRNA; 2'-O-methyl modifications at selected positions, key for n not given here) | – | – | – | no measurable IFNα | no measurable IFNα or increase in IFIT1 mRNA in the liver or spleen | – | – | – | predicted 102 bp RACE-PCR product was amplified | confirmed the specific induction of RNAi-mediated KSP mRNA cleavage within tumors | significant numbers of tumor cells with aberrant mitotic figures typical of monoastral and apoptotic cells | ~13 | 28 | induced the distinct monoastral nuclear phenotype in vitro |
